These results are taken from PubChem BioAssay (NCI).

Several values for one entry are separate records, joined by “and”; a condition that tells them apart may be missing. Equal entries are not always repeated.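 Each compound was tested at five concentrations against cells in 96-well plates for 48 hours. GI50 = concentration required for 50% inhibition of growth. The concentration for full growth arrest is given as TGI.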

Among the test systems are ACHN renal; HCT-15 colon; HL-60(TB) leukemia; KM12 colon; M14 melanoma; NCI-H460 lung; OVCAR-5 ovarian; SK-MEL-28 melanoma; SN12C renal; SW-620 colon.
Common to all, as to experiment: NCI tumour cell line growth inhibition, 48 h

Turning to `COc1cc(C(=O)Nc2cc3c(cc2Oc2cc(C)cc(C)c2)C(=O)N(C)[C@@H](CC(=O)N(C)O)C(=O)N3)c(Br)c(OC)c1OC`, the GI50 in the assay with ACHN renal is 0.0111 µM; in the assay on HCT-15 colon, 0.144 µM; in the assay with HL-60(TB) leukemia, less than 0.00333 µM; in the assay with KM12 colon, less than 0.00333 µM; in the assay with M14 melanoma, less than 0.00333 µM; in the assay on NCI-H460 lung it was less than 0.00333 µM. Moreover, the GI50 in the assay on OVCAR-5 ovarian, with SK-MEL-28 melanoma, in the assay on SN12C renal and in the assay on SW-620 colon was less than 0.00333 µM each time. For the same molecule, the TGI is 0.374 µM in the assay on ACHN renal; 2.04 µM with HCT-15 colon; less than 0.00333 µM in the assay with HL-60(TB) leukemia; 0.0394 µM in the assay on KM12 colon; 0.0101 µM in the assay with M14 melanoma; 0.00425 µM in the assay with NCI-H460 lung. In addition, the TGI with OVCAR-5 ovarian is 0.00751 µM; in the assay with SK-MEL-28 melanoma, less than 0.00333 µM; in the assay with SN12C renal it was less than 0.00333 µM; in the assay with SW-620 colon it was 0.0149 µM.
For `COC(=O)C(CC(=O)Nc1ccc(C)cc1)C(=O)C(=O)Nc1ccccc1C(C)C` (centres undefined), the TGI in the assay on ACHN renal, with HCT-15 colon, in the assay on HL-60(TB) leukemia, with KM12 colon, with M14 melanoma and with NCI-H460 lung was greater than 100 µM each time. Also, the TGI was greater than 100 µM in the assay with OVCAR-5 ovarian, greater than 100 µM with SK-MEL-28 melanoma, greater than 100 µM in the assay with SN12C renal and 41.7 µM in the assay with SW-620 colon.
Take `CCOP(=O)(OCC)OC(C#N)c1ccc(-c2ccccc2)cc1` (centres undefined): the TGI in the assay on ACHN renal was greater than 100 µM; in the assay with HCT-15 colon, 32.8 µM; with HL-60(TB) leukemia, 36.9 µM; with KM12 colon, 33.2 µM; in the assay with M14 melanoma, 33.3 µM; in the assay with NCI-H460 lung it was 36.3 µM. Besides, the TGI is greater than 100 µM with OVCAR-5 ovarian, greater than 100 µM in the assay on SK-MEL-28 melanoma, 36.8 µM in the assay with SN12C renal and 26.8 µM with SW-620 colon.
For `CCOc1cccc(/C=N/NC(=O)C(=O)Nc2cccc(C(F)(F)F)c2)c1O`, the GI50 with ACHN renal was 1.03 µM; in the assay on HCT-15 colon, 0.459 µM; in the assay on HL-60(TB) leukemia it was 0.89 µM; in the assay on KM12 colon it was 3 µM; in the assay on M14 melanoma, 1.52 µM; with NCI-H460 lung, 0.808 µM. For the same molecule, the GI50 in the assay on OVCAR-5 ovarian is 5.67 µM; in the assay with SK-MEL-28 melanoma it was 5.51 µM; in the assay with SN12C renal it was 2.66 µM; in the assay on SW-620 colon it was 3.09 µM. Also, the TGI was 25.3 µM in the assay with ACHN renal; greater than 100 µM with HCT-15 colon; 4.45 µM with HL-60(TB) leukemia; greater than 100 µM in the assay on KM12 colon; 12.6 µM with M14 melanoma; 60.3 µM in the assay on NCI-H460 lung. Also, the TGI in the assay with OVCAR-5 ovarian, in the assay with SK-MEL-28 melanoma, in the assay with SN12C renal and in the assay on SW-620 colon was greater than 100 µM in each case.
Turning to `O=c1cccc(C2CC(CO)C3CCCCN3C2)[nH]1` (centres undefined), the TGI in the assay on ACHN renal, in the assay with HCT-15 colon, with HL-60(TB) leukemia, in the assay on KM12 colon, in the assay with M14 melanoma and in the assay with NCI-H460 lung was greater than 100 µM in each case. In addition, the TGI in the assay on OVCAR-5 ovarian, in the assay with SK-MEL-28 melanoma, with SN12C renal and in the assay with SW-620 colon was greater than 100 µM each time.
Turning to `Cc1sc2nc3c4ccccc4c(NCCCN(C)C)nn3c(=O)c2c1C`, the GI50 in the assay with ACHN renal is 6.95 µM; with HCT-15 colon it was 6.73 µM; with HL-60(TB) leukemia, 9.98 µM; with KM12 colon it was 4.84 µM; in the assay with M14 melanoma it was 1.77 µM; with NCI-H460 lung it was 1.08 µM. For the same molecule, the GI50 in the assay with OVCAR-5 ovarian is 14.2 µM; in the assay with SK-MEL-28 melanoma it was 1.73 µM; in the assay on SN12C renal, 5.14 µM; in the assay on SW-620 colon, 1.67 µM. In addition, the TGI in the assay with ACHN renal was 20.4 µM; with HCT-15 colon it was 20.8 µM; with HL-60(TB) leukemia it was 25.8 µM; in the assay with KM12 colon it was 17.7 µM; in the assay with M14 melanoma, 3.22 µM; with NCI-H460 lung, 5.35 µM. Further, the TGI with OVCAR-5 ovarian came to 28.5 µM; in the assay on SK-MEL-28 melanoma it was 3.21 µM; in the assay with SN12C renal, 21.7 µM; with SW-620 colon, 4.55 µM.
Turning to `CCOc1cc(/C=N\Nc2nnc(C)n2N)c(C)cc1N(CCCl)CCCl`, the GI50 in the assay with ACHN renal is 0.805 µM; in the assay on HCT-15 colon, 1.28 µM; with HL-60(TB) leukemia it was 0.351 µM; in the assay with KM12 colon, 0.897 µM; in the assay with M14 melanoma, 0.776 µM; with NCI-H460 lung, 0.843 µM. For the same molecule, the GI50 in the assay with OVCAR-5 ovarian was 3.05 µM; in the assay on SK-MEL-28 melanoma, 1.97 µM; with SN12C renal, 1.07 µM; with SW-620 colon, 0.663 µM. In addition, the TGI with ACHN renal was greater than 100 µM; in the assay with HCT-15 colon it was greater than 44.5 µM; with HL-60(TB) leukemia, 3.82 µM; with KM12 colon, 19.9 µM; in the assay on M14 melanoma, greater than 49.8 µM; with NCI-H460 lung, 31.5 µM. In addition, the TGI in the assay on OVCAR-5 ovarian is greater than 100 µM; in the assay with SK-MEL-28 melanoma, 53.8 µM; with SN12C renal it was 27.3 µM; with SW-620 colon, greater than 57.3 µM.
Take `C=CC(=O)Nc1cc2c(Nc3ccc(F)c(Cl)c3)ncnc2cc1OCCCN1CCOCC1`: the GI50 in the assay on ACHN renal was < 0.01 µM and 0.0448 µM; with HCT-15 colon, 1.4 µM and 2.17 µM; with HL-60(TB) leukemia, 2 µM and 1.73 µM; with KM12 colon, 3.18 µM and 5.3 µM; with M14 melanoma, 1.7 µM and 4.48 µM; in the assay on NCI-H460 lung it was 3.65 µM and 5.27 µM. The GI50 was 0.879 µM and 5.82 µM with OVCAR-5 ovarian; 1.67 µM and > 6.85 µM in the assay on SK-MEL-28 melanoma; 0.805 µM and 1.59 µM with SN12C renal; 1.81 µM and 2.62 µM with SW-620 colon. Also, the TGI was 2.11 µM and > 10 µM with ACHN renal; 3.6 µM and > 6.04 µM in the assay on HCT-15 colon; 4.88 µM and 7.33 µM in the assay with HL-60(TB) leukemia; 11.9 µM and > 10 µM with KM12 colon; 3.52 µM and > 10 µM in the assay on M14 melanoma; 15.4 µM and > 10 µM in the assay on NCI-H460 lung. Further, the TGI is 16.3 µM and > 10 µM in the assay with OVCAR-5 ovarian; 3.21 µM and > 10 µM in the assay with SK-MEL-28 melanoma; 6.8 µM and > 10 µM with SN12C renal; 3.59 µM and > 6.13 µM in the assay on SW-620 colon.
For the molecule `COC1C2C=CC(C2)[C@H]1[N+](=O)[O-]` (some centres undefined), the TGI in the assay with ACHN renal, in the assay on HCT-15 colon, with HL-60(TB) leukemia, in the assay with KM12 colon, in the assay on M14 melanoma and with NCI-H460 lung was greater than 100 µM each time. The TGI with OVCAR-5 ovarian, in the assay with SN12C renal and with SW-620 colon was greater than 100 µM each time.
